Measured values as given in US11945822B2, “Pyrazolo-triazine and/or pyrazolo-pxrimidine derivatives as selective inhibitor of cyclin dependent kinase” (QURIENT CO., LTD., priority 2018, dated 2024).
Like-named read-outs stand apart in the source and are kept apart here.

Assays:
H460 = experiment: Cellular H460 viability assay (CellTiter-Glo, 72 hours); assay type: cell-based; settings: Homo sapiens, NCI-H460
Method in brief: (§1)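 72 h treatment, 37 °C, 5% CO2; DMSO ctrl, final <0.1%; CellTiter-Glo luminescence; n=2.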

CDK7/Cyclin H/MNAT1 = molecular target: T1, CDK7/Cyclin H/MNAT1 (Homo sapiens, UniProt P50613); experiment: Enzymatic assay for CDK7 (FRET based LANCE Ultra kinase assay); assay type: biochemical
T1 construct: purchased Invitrogen PR6749B
T1 sequence (P50613 whole entry): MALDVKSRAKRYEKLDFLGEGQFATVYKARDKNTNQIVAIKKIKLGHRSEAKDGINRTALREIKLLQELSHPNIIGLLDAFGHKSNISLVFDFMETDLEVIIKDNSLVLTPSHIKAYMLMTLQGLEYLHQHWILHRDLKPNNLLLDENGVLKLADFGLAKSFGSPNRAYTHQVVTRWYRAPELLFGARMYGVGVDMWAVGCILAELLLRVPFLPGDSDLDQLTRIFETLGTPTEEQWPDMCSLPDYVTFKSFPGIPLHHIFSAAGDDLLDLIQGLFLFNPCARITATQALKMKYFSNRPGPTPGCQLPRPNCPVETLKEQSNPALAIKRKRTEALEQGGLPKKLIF
T1 sequence (P51946 whole entry partner): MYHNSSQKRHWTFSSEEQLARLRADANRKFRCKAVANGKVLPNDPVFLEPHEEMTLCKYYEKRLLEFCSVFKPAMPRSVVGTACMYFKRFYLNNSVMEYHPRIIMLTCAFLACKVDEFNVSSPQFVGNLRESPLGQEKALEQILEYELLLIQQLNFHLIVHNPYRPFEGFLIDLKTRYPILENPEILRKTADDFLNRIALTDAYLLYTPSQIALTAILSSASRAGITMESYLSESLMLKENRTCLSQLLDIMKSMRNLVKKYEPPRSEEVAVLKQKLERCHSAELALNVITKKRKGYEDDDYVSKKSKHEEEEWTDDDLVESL
T1 sequence (P51948 whole entry partner): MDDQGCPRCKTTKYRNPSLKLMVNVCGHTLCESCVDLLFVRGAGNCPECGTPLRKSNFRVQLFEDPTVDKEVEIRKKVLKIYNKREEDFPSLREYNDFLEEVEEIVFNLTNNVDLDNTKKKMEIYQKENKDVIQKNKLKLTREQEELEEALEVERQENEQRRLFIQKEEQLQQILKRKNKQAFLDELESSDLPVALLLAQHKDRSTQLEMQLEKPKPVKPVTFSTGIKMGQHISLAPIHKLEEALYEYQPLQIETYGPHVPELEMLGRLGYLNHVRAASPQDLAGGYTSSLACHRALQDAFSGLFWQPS
Method in brief: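 LANCE Ultra TR-FRET kinase assay using a ULight-labeled peptide substrate and a Eu-labeled anti-phospho antibody, with ATP at its Km. Purified CDK/cyclin complex was added to compound after brief centrifugation.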

CDK5/p25 = molecular target: T2, CDK5/p25 (Homo sapiens, UniProt Q00535); experiment: Enzymatic assay for CDK5 (FRET based LANCE Ultra kinase assay); assay type: biochemical
T2 construct: purchased Invitrogen PR8543B
T2 sequence (Q00535 whole entry): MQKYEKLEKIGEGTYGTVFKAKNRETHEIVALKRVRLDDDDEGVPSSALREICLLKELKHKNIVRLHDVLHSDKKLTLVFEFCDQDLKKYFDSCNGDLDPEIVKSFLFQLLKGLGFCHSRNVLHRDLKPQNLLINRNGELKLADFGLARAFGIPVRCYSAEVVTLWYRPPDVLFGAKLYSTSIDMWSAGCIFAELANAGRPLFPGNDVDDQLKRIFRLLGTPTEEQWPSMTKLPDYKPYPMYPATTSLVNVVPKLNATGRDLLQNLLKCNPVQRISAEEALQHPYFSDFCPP
T2 sequence (Q15078 99-307 partner limits assumed): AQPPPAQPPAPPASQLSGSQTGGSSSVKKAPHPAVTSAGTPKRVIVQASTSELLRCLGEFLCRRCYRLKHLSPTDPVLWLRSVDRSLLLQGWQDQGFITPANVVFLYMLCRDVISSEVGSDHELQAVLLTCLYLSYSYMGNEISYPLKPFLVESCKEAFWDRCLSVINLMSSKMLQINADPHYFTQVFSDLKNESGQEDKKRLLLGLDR
Method in brief: (§2)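 Each CDK complex ([…]) phosphorylated 68 nM ULight-MBP peptide with ATP at Km for 60 min at 23° C., against 8 compound doses (4-fold dilutions). EDTA/Eu-anti-phospho-MBP detection, 60 min, then TR-FRET emission at 615 and 665 nm.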

HCT116 = experiment: Cellular HCT116 viability assay (CellTiter-Glo, 72 hours); assay type: cell-based; settings: Homo sapiens, HCT-116
Method in brief: as §1

A2780 = experiment: Cellular A2780 viability assay (CellTiter-Glo, 72 hours); assay type: cell-based; settings: Homo sapiens
Text: Human T-cell acute lymphoblastic leukemia cell line, MOLT-4 (ATCC, Cat #CRL-1582), Human multiple myeloma cell line, RPMI-8226 (Invitrogen, Cat #22400-089) and MM.1S (ATCC, Cat #CRL-2974), NSCLC (Non-small cell lung cancer) cell line H460 (ATCC, Cat #HTB-177), Human colon colorectal carcinoma cell line HCT116 (ATCC, Cat #CCL-247), Human acute monocytic leukemia cell line MV4-11 (ATCC, Cat #CRL-9591), OVCAR-3 (ATCC, Cat #HTB-161) and A2780 (ECACC, Cat #93112519) were obtained from ATCC. Cells were grown in RPMI-1640 media (Invitrogen, Cat #22400-089) supplemented with 10% FBS (Invitrogen, Cat #10099141) and 1% penicillin/streptomycin (Invitrogen, Cat #15070063) and cultured at 37° C., 5% CO2 in a humidified chamber. All cell lines were routinely tested for mycoplasma.
The effect of the CDK7 inhibitor to inhibit the growth of target cancer cells was evaluated through the 72 hours time period of viability assay. Briefly, the candidate cell line ware plated in 96 well plate at the following density of cells respectively. 1×10^4 cells/well for MOLT-4, RPMI-8226, MV4-11 and MM.1S, 5×10^3 for H460, HCT116 and OVCAR-3 and IX 10^3 for A2780. After 24 hours, the cells were treated with various concentrations of the compound (ranging from 0.0015 uM to 10 uM). DMSO solvent without compound served as a control and final DMSO concentration less than 0.1%. After 72 hours of incubation at 37° C., 5% CO2 incubator, cells were analyzed for the viability using the CellTiter-Glo Luminescent Cell Viability Assay (Promega, Cat #G7570). All viability assays were performed in duplicate and Luminescence was read using an Envision (Perkin Elmer, USA). Data was analyzed using XLfit software.

CDK2/Cyclin A = molecular target: T3, CDK2/Cyclin A (Homo sapiens, UniProt P24941); experiment: Enzymatic assay for CDK2 (FRET based LANCE Ultra kinase assay); assay type: biochemical
T3 construct: purchased Invitrogen PV6290
Method in brief: as §2

MV4-11 = experiment: Cellular MV4-11 viability assay (CellTiter-Glo, 72 hours); assay type: cell-based; settings: Homo sapiens
Method in brief: as §1

CDK1/Cyclin B = molecular target: T4, CDK1/Cyclin B (Homo sapiens, UniProt P06493); experiment: Enzymatic assay for CDK1 (FRET based LANCE Ultra kinase assay); assay type: biochemical
T4 construct: purchased Invitrogen PR4768C
T4 sequence (P06493 whole entry): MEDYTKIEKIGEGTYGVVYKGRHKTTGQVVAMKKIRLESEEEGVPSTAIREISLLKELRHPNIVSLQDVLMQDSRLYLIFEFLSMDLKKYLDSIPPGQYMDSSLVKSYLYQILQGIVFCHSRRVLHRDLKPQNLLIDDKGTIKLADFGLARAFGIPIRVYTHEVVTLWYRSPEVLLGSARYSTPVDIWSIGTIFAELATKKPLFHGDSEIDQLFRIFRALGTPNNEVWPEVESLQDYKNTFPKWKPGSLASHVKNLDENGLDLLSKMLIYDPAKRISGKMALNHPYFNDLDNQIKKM
T4 sequence (P14635 whole entry partner): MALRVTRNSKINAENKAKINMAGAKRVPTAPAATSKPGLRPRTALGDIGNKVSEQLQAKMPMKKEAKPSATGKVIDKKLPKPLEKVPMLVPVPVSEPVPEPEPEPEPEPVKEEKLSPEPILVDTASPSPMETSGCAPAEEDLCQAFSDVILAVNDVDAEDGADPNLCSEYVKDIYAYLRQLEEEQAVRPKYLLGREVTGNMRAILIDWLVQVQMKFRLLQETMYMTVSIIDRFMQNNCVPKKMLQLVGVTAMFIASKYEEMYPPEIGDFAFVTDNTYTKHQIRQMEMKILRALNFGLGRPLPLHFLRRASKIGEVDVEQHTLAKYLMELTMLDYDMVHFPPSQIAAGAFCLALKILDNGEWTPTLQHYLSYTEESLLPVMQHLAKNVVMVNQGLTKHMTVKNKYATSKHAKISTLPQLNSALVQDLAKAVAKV
Method in brief: as §2

[1] = read-out: CDK7 enzymatic activity (IC50 range)
[2] = read-out: CDK5 enzymatic activity (IC50 range)
[3] = read-out: CDK2 enzymatic activity (IC50 range)
[4] = read-out: CDK1 enzymatic activity (IC50 range)
[5] = read-out: CDK7 enzymatic activity (IC50 activity range)
[6] = read-out: CDK5 enzymatic activity (IC50 activity range)
[7] = read-out: CDK2 enzymatic activity (IC50 activity range)
[8] = read-out: CDK1 enzymatic activity (IC50 activity range)

| SMILES | IC50 (H460) [nM] | CDK1/CDK7: Selectivity of CDK7 inhibition over CDK1 inhibition (CDK7/Cyclin H/MNAT1; CDK7 over CDK1) | CDK2/CDK7: Selectivity of CDK7 inhibition over CDK2 inhibition (CDK7/Cyclin H/MNAT1; CDK7 over CDK2) | CDK5/CDK7: Selectivity of CDK7 inhibition over CDK5 inhibition (CDK7/Cyclin H/MNAT1; CDK7 over CDK5) | IC50 (CDK7/Cyclin H/MNAT1; [1]) [nM] | IC50 (CDK5/p25; [2]) [nM] | IC50 (HCT116) [nM] | IC50 (A2780) [nM] | IC50 (CDK2/Cyclin A; [3]) [nM] | IC50 (MV4-11) [nM] | IC50 (CDK1/Cyclin B; [4]) [nM] | CDK1/CDK7: Selectivity of CDK7 inhibition over CDK1 inhibition (CDK7/Cyclin H/MNAT1; CDK1/CDK7) | CDK2/CDK7: Selectivity of CDK7 inhibition over CDK2 inhibition (CDK7/Cyclin H/MNAT1; CDK2/CDK7) | CDK5/CDK7: Selectivity of CDK7 inhibition over CDK5 inhibition (CDK7/Cyclin H/MNAT1; CDK5/CDK7) | IC50 (CDK7/Cyclin H/MNAT1; [5]) [nM] | IC50 (CDK5/p25; [6]) [nM] | IC50 (CDK2/Cyclin A; [7]) [nM] | IC50 (CDK1/Cyclin B; [8]) [nM] |
| --- | --- | --- | --- | --- | --- | --- | --- | --- | --- | --- | --- | --- | --- | --- | --- | --- | --- | --- |
| Cc1cccc(-n2ccc(C(C)(C)O)n2)c1CNc1nc(N2CCC(N)CC2)nc2c(C(C)C)cnn12 [Compound 230] | < 1000 | A (A=greater than 200 fold) | A (A=greater than 200 fold) | A (A=greater than 200 fold) | < 100 | > 1000 | < 1000 | ≤ 1000 | > 1000 | < 1000 | > 1000 | – | – | – | – | – | – | – |
| CCN1CC[C@H](CNc2nc(NCc3ccccc3-c3ccc4ccccc4n3)n3ncc(C(C)C)c3n2)[C@@H](O)C1 [Compound 261] | < 1000 | – | – | – | – | – | – | ≤ 1000 | – | 1000 to 10000 | – | A (A=greater than 200 fold) | A (A=greater than 200 fold) | A (A=greater than 200 fold) | < 100 | > 1000 | > 1000 | > 1000 |
| CC(C)c1cnn2c(NCc3ccccc3-c3ccc4ccccc4n3)nc(N3CCCC[C@H]3CCO)nc12 [Compound 260] | 1000 to 10000 | – | – | – | – | – | – | 1000 to 10000 | – | 1000 to 10000 | – | B (B=less than 200 fold, but greater than 20 fold) | B (B=less than 200 fold, but greater than 20 fold) | B (B=less than 200 fold, but greater than 20 fold) | 100 to 1000 | > 1000 | > 1000 | > 1000 |
| CC(C)c1cnn2c(NCc3c(Cl)cccc3-c3cc(C(C)(C)O)nn3C)nc(N3CCC(N)CC3)nc12 [Compound 258] | < 1000 | – | – | – | – | – | – | ≤ 1000 | – | < 1000 | – | A (A=greater than 200 fold) | A (A=greater than 200 fold) | A (A=greater than 200 fold) | < 100 | > 1000 | > 1000 | > 1000 |
| CC(C)c1cnn2c(NCc3ccccc3-c3ccc4ccccc4n3)nc(O[C@H]3CC[C@@H](O)CC3)nc12 [Compound 272] | 1000 to 10000 | – | – | – | – | – | – | 1000 to 10000 | – | 1000 to 10000 | – | A (A=greater than 200 fold) | A (A=greater than 200 fold) | A (A=greater than 200 fold) | < 100 | > 1000 | > 1000 | > 1000 |
| CC(C)c1cnn2c(NCc3c(Cl)cccc3-n3ccc(C(C)(C)O)n3)nc(N3CCC(F)(CN)CC3)nc12 [Compound 252] | < 1000 | – | – | – | – | – | – | ≤ 1000 | – | < 1000 | – | A (A=greater than 200 fold) | A (A=greater than 200 fold) | A (A=greater than 200 fold) | < 100 | > 1000 | > 1000 | > 1000 |
| CC(C)c1cnn2c(NCc3ccccc3-c3ccc4ccccc4n3)nc(NCC[C@H](O)CN)nc12 [Compound 247] | 1000 to 10000 | A (A=greater than 200 fold) | A (A=greater than 200 fold) | A (A=greater than 200 fold) | < 100 | > 1000 | – | 1000 to 10000 | > 1000 | 1000 to 10000 | > 1000 | – | – | – | – | – | – | – |
